Experiments:
[1] = target: T1, Estrogen receptor (Homo sapiens, UniProt P03372)
T1 sequence (P03372 whole entry): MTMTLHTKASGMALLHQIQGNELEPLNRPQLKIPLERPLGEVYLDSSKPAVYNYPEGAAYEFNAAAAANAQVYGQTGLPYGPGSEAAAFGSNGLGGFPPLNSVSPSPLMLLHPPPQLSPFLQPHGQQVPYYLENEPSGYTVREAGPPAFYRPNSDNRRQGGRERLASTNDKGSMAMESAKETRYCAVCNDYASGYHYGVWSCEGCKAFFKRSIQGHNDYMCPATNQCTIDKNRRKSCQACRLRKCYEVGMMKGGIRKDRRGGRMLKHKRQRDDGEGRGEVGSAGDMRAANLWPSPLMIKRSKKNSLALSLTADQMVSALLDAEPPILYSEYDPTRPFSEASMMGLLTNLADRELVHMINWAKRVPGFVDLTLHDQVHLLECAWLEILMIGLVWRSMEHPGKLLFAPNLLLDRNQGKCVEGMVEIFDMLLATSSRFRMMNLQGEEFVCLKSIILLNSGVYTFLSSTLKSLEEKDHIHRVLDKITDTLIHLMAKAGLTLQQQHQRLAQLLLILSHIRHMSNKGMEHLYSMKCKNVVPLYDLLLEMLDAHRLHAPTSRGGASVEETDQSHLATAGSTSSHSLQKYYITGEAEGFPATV
Description: Agonist activity at ER-alpha (unknown origin) transfected in HEK293T cells after 24 hrs by Steady-Glo luciferase reporter gene assay

[2] = target: T2, Estrogen receptor beta (Homo sapiens, UniProt Q92731)
[3] = target: T2, Estrogen receptor beta; experiment: Agonist activity at ER-beta (unknown origin) transfected in HEK293T cells after 24 hrs by Steady-Glo luciferase reporter gene assay relative to estradiol; type: cell-based; details: HEK-293T
[4] = target: T2, Estrogen receptor beta; experiment: Agonist activity at human ER-beta transfected in human 293 cells assessed as ALP reporter protein expression after 72 hrs by chemiluminescence assay; type: cell-based

T2 sequence (Q92731 whole entry): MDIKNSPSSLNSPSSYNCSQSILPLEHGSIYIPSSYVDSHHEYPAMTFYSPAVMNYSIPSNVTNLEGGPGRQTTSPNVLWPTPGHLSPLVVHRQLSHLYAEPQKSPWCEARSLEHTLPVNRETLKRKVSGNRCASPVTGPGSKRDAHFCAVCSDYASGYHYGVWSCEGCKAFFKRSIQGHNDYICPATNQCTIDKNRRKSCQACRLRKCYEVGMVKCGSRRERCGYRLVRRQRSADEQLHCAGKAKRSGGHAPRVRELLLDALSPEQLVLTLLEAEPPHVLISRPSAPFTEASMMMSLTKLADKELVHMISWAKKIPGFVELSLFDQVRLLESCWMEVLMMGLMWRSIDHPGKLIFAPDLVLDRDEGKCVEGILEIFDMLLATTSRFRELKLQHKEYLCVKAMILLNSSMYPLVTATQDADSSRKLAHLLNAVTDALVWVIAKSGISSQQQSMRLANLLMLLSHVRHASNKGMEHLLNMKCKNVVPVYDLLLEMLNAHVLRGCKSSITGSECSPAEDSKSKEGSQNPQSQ

Row | Compound | EC50 [1] [nM] | EC50 [2] [nM] | Efficacy [3] [%] | EC50 [4] [nM]
1 | C[C@]12CC[C@@H](c3ccc(O)cc3)C[C@H]1CCC2=O | 7940 | 126 | 144 | –
2 | C[C@]12CC[C@@H]3c4ccc(O)cc4CC[C@H]3[C@@H]1C[C@H](O)[C@H]2O | – | – | – | 11
3 | C[C@]12CCC(c3ccc(O)cc3)C[C@H]1CC[C@@H]2O (some centres undefined) | 31.6 | 0.398 | 127 | –

More lines, in order of falling EC50 [2], values ahead:

Row | EC50 [1] [nM] | EC50 [2] [nM] | Efficacy [3] [%] | EC50 [4] [nM] | Compound
4 | > 10000 | 251 | 148 | – | C[C@]12CC[C@H](c3ccc(O)cc3)C[C@H]1CCC2=O
5 | 10000 | 20 | 108 | – | C[C@]12CC[C@H](c3ccc(O)cc3)C[C@H]1C[C@H](O)[C@H]2O
6 | – | 0.126 | – | – | C[C@]12CC[C@@H]3c4ccc(O)cc4CC[C@H]3[C@@H]1C[C@@H](O)[C@@H]2O [ESTRIOL]
